# In patent US10519131B2, “Benzazepine compounds, conjugates, and uses thereof” (SILVERBACK THERAPEUTICS, INC., priority 2017, dated 2019):
# Legend:
# [1] = test system: human monocytes injected intratumorally; experiment: Antigen dependent monocyte activation in a mouse tumor model; format: in vivo, NOD SCID mice; details: 5-20 mg/kg intravenously
# Experimental: Human monocytes were prepared as described above. Trop2^+ MDA-MB-453 cells or Trop2-MiaPaca2 were cultured by standard methods. A TLR8 benzazepine linker payload (LP) was prepared by attaching a MCC (N-maleimidomethyl]cyclohexane-1-carboxylate) linker in place of the mc-vc-PABA linker in Compound-Linker 2.1 to form Compound-Linker 2.22. TROP2-TLR8 benzazepine conjugates were prepared by conjugation of Compound-Linker 2.22 to a TROP2 antibody (sacituzumab) to form a conjugate with an average DAR of about 4.
# On Day 1 NOD SCID mice were injected with 5×10^5 Trop2^+ MDA-MB-453 cells or Trop2-MiaPaca2 cells. Seven to ten days later when the tumor size reached about 300 mm^3, the mice were injected intravenously with 5-20 mg/kg of the TROP2-TLR8 benzazepine conjugate or TROP2 antibody alone. Sixteen hours later, 10^6 human monocytes were injected intratumorally. Four to six hours later, the tumors were harvested and digested. Monocytes were identified by staining for cell surface markers and monocyte activation was determined by intracellular staining for IL-6.
# [2] = test system: Human peripheral blood mononuclear cells (PBMC); experiment: PBMC screening assay, TNF-α in supernatant; format: cell-based; details: 24 hours, TNF-α in supernatant by ELISA or HTRF
# Experimental: Human peripheral blood mononuclear cells (PBMC) were obtained from BenTek, frozen at 25×10^6 cell/mL in 10% DMSO (Sigma) prepared in fetal bovine serum (Gibco) and stored in liquid nitrogen. For culture PBMC were thawed quickly in a 37° C. water bath and diluted into pre-warmed RPMI 1640 (Lonza) supplemented with 10% fetal bovine serum, 2 mM glutamine, 50 μg/mL penicillin, 50 U/mL streptomycin (all from Gibco) and centrifuged for 5 minutes at 500×g. PBMC were suspended into the growth media described above and cultured at a concentration of 1×10^6 cells per mL at 37° C. in a 5% CO2 incubator.
# PBMC were thawed, suspended at a concentration of 1×10^6 cell/mL in growth media and 200 μL was aliquoted into each well of a 96-well plate for a total of 0.2×10^6 cells per well. PBMC were incubated for 16-18 hours at 37° C. in a 5% CO2 humidified incubator. The following day PBMC plates were centrifuged at 500×g for 5 minutes and the growth media was removed. […] TNF-α activity was assessed in the supernatant by ELISA (eBioscience) or HTRF (CisBio) per the manufacturer's instructions. Optical density at 450 nm and 570 nm (ELISA) or luminescence (HTRF) was analyzed using an Envision (Perkin Elmer) plate reader, as shown in Table 5.
Compound,human monocyte activation (intracellular staining for IL-6) ([1]; mice having a TROP2-tumor (MiaPaca2)),human monocyte activation (intracellular staining for IL-6) ([1]; mice having a TROP2^+ tumor (MDA-MB-453)),EC50 [2] [nM]
"control antibody: ""TROP2 antibody alone"" (sacituzumab) in Example 16; elsewhere the unconjugated parental aTROP2 or aHER2 antibody",did not cause human monocyte activation,did not cause human monocyte activation,
CCCN(CCC)C(=O)C1=Cc2ccc(C(=O)Nc3ccc4c(c3)CN(C(=O)OCc3ccccc3)CC4)cc2N=C(N)C1 [Compound 1.30],,,< 500
CCCN(CCC)C(=O)C1=Cc2ccc(C(=O)NC3C[C@@H]3c3ccccc3)cc2N=C(N)C1 (stereo partly shown) [Compound 1.28],,,< 500
